Measured values from patent publication US20220323445A1, “REDUCING IMMUNOGENICITY TO PEGLOTICASE” (Horizon Therapeutics Ireland DAC, priority 2020, published 2022).

Tested on: serum uric acid (sUA)
Experiment: Serum uric acid (sUA) levels and sUA responders, open-label study of pegloticase with MTX (NCT03635957)
Format: in vivo, human
Conditions: mITT
Method: The primary objective is to estimate the response rate during Month 6 (Weeks 20, 22, and 24), as measured by the sustained normalization of serum uric acid (SUA) to <6 mg/dL for at least 80% of the time during Month 6 in subjects receiving KXX with MTX.
The primary efficacy outcome endpoint is the sustained normalization of SUA to <6 mg/dL for at least 80% of the time during month 6 (weeks 20, 22, and 24) in subjects receiving KXX with MTX. This is slightly below the urate solubility threshold and this threshold has been the accepted standard for nearly all modern gout trials. Participants who achieve this endpoint were classified as “responders.” Serum uric acid (SUA) responders may also be defined as participants achieving and maintaining SUA <6 mg/dL for at least 80% of the time during Month 6 (Weeks 20, 22, and 24).
Blood samples may be collected prior to each pegloticase infusion for measurement of SUA levels using the Beckman Coulter AU System Uric Acid procedure. Participants were declared “non-responders” if there were SUA measures >6 mg/dL at 2 consecutive study visits beginning with the week 2 visit. […] If the SUA goal is not maintained before or at the 12-week mark, it was assumed that the participant had developed clinically relevant anti-pegloticase antibody and they received no further infusions. This assumption and subsequent discontinuation of pegloticase was consistent with the protocol of large phase III randomized controlled trials and the product label. A formal stopping rule was 2 occasions of SUA levels of greater than 6 mg/dL.
Clinical Chemistry—Blood samples were collected prior to each pegloticase infusion for measurement of SUA levels (primary efficacy parameter) using the Beckman Coulter AU System Uric Acid procedure. In this procedure uric acid is converted to hydrogen peroxide. Hydrogen peroxide reacts with reagent to produce a chromophore which is read bichromatically at 660/800 nm. The amount of dye formed is proportional to the uric acid concentration in the sample.
Serum samples for measurement of SUA levels were collected at the Screening Visit, the Week −4 Visit (prior to the first dose of MTX), and the Week −2 Visit during the MTX Run-in Period; within 48 hours prior to each pegloticase infusion and after the end of each pegloticase infusion prior to discharge from the site during the Pegloticase+IMM Period; at the non-infusion Week 52/End of Study/Early Termination Visits and at the Post Treatment 3 and 6 Month Follow-up Visits. Additional serum samples for SUA levels were collected at optional non-infusion (Frequent Sampling) Visits at Weeks 1 and 7. […] Subjects with SUA level >6 mg/dL at 2 consecutive visits beginning at Week 2 visit discontinued treatment, completed the End of Pegloticase Infusion Visit procedures within 2 weeks and continued the subject visits according to the protocol (without treatment).
Efficacy analyses were performed using the modified intention-to-treat (mITT) population, defined as all enrolled subjects who received ≥1 dose of pegloticase. The proportion of Month 6 responders was summarized, along with a 95% confidence interval for the proportion. The proportion of Month 3 and overall (Months 3 and 6 combined) responders was analyzed similarly.
A subject was declared a non-responder if the subject had SUA level >6 mg/dL at 2 consecutive study visits beginning with the Week 2 Visit. In addition, a subject who withdraws from study treatment for any reason after the first dose of pegloticase in the KXX+MTX Period and prior to Month 6 (for the primary endpoint) or Month 3 (for the secondary endpoint) was considered a non-responder if SUA values were not collected at the planned time points.
Patients were administered oral MTX (15 mg/week) and folate (1 mg/day) 4 weeks prior to the first pegloticase infusion (Day 1) and throughout the pegloticase treatment period. […]

[1] = Day 1 - Pre-Infusion (after MTX Run-in)

SMILES: CN(Cc1cnc2nc(N)nc(N)c2n1)c1ccc(C(=O)N[C@@H](CCC(=O)O)C(=O)O)cc1 [MTX, methotrexate]
- sUA Change from Methotrexate Baseline, Mean (SD) [1]: 0.25 (1.283) mg/dL
- sUA Change from Methotrexate Baseline, Median [1]: -0.25 mg/dL
- sUA Observed, Median [1]: 9.00 mg/dL
- sUA ≤ 6 mg/dL, n (%) [1]: 1 (7.1%) n (%)
- sUA Change from Methotrexate Baseline, Mean (SD) (Week -2 (MTX Run-in Period)): 0.54 (0.839) mg/dL
- sUA Change from Methotrexate Baseline, Median (Week -2 (MTX Run-in Period)): 0.50 mg/dL
- sUA Observed, Median (Week -2 (MTX Run-in Period)): 9.30 mg/dL
- sUA ≤ 6 mg/dL, n (%) (Week -2 (MTX Run-in Period)): 1 (7.1%) n (%)
